Results on 3 molecules are retold here after patent US20240294571A1, “ANALGESIC AND ANESTHETIC PEPTIDES AND OTHER AGENTS” (The Research Foundation for The State University of New York, priority 2019, published 2024).

One data set concerns rat hind paws. Kind of data set: Hematoxylin & eosin staining, immune cells and gait in incisional pain model. Format: in vivo. How it is done: (A) Animals were treated as previously stated in the Methods section. However, no behavior was collected, instead, animals were sacrificed via transcardial perfusion, and tissue was collected for staining. (Top) Representative images depicting hematoxylin & eosin staining of rat hind paws in scrambled (n=2) and AP2 inhibitory peptide groups (n=2). Localized immune cells can be observed in the dermis in each condition. (Bottom) 24 hours following incision, there is a rapid increase in the number of immune cells. […] (B) Representative images of incision site in animals that received either the scrambled peptide (top) or AP2 inhibitory peptide (bottom). Black arrows highlight significant granuloma-like structures.

In another data set the target is AP2 complex (Homo sapiens, UniProt O94973+P53680). The conditions noted are these: peptide sequence derived from human CD4 di-leucine motif; read-out: affinity for the AP2 complex; cited from earlier work.
In data set [1] the test system is C57BL/6 mice. Nature of the data set: Formalin acute inflammatory pain assay. In kind it is in vivo, mouse. How it is done: Formalin Assay. Male and female C57BL/6 mice were randomly assigned to either control or experimental groups. Animals were habituated to the formalin testing chamber for 30 minutes or until exploratory behavior ceased the day of experimentation. Following the habituation period, animals were removed from the chamber and given an intraplantar injection of 5% formalin into the ipsilateral hind paw, then immediately placed back into the testing chamber and recorded. Animals were recorded for at least 90 minutes after formalin injection using Active WebCam software. Videos were subsequently scored for number of paw licks, number of paw lifts, and number of full body flinches. All behaviors were scored for a full minute, every five minutes, for 90 minutes of video recording.
Formalin Assay: Male and female C57BL/6 mice were randomly assigned to either control or experimental groups. […] Following the habituation period, animals were removed from the chamber and given an intraplantar injection of 5% formalin into the ipsilateral hind paw, then immediately placed back into the testing chamber and recorded. Animals were recorded for at least 90 minutes after formalin injection using Active WebCam software. Videos were subsequently scored for number of paw licks, number of paw lifts, and number of full body flinches. […]

For data set [2], the system named is C57BL/6 mice. Nature of the data set: CFA-induced inflammatory pain, thermal sensitivity (Hargreaves). Format: in vivo, mouse. As to conditions: for tau (τ), time constant of thermal sensitivity recovery: time in days. How it is done: Freund's Complete Adjuvant Chronic Pain Model. C57BL/6 mice were anesthetized (induction: 3%, maintenance: 2%) and placed in a prone position. After the animals were under a surgical plane of anesthesia, denoted by a loss of reaction to both a tail and hind paw pinch, they received a 20 μL injection of Imject™ Freund's Complete Adjuvant (FCA; Thermo Fisher Scientific) and allowed to recover. Behavior testing resumed 24 hours post FCA injection. Each cohort of animals received FCA from previously unopened, vacuum sealed glass ampules to minimize variations between groups.
Hargreaves Assay. Animals were placed on an enclosed elevated frosted glass platform (Ugo Baseline) and allowed 30 minutes for habituation. Once exploratory behavior ceased, an automatic Hargreaves apparatus was maneuvered (Ugo Baseline) underneath the hind paw(s) of the animals. Paw withdrawal latency was calculated as the average of four trials per hind limb. Each trial was followed by a 5-minute latency period to allow adequate recovery time between trials.
Complete Freund's Adjuvant Induced Inflammatory Pain: Male and female C57BL/6 mice were randomized into experimental and control groups. In order to maintain consistency in regards to site of injection, mice were anesthetized and injected with a 32-gauge disposable syringe filled with 20 μL of Imject™ Complete Freund's Adjuvant (Thermo Fisher Scientific) into the plantar surface of the right hind paw and allowed to recover. Behavior testing resumed 24 hours post-CFA injection at which point the animals received a 20 μL intraplantar injection of 100 μM (3.154 μg total) lipidated peptidomimetic immediately after the conclusion of day 1 behavioral testing. In order to minimize experimental error between groups, each group of animals received CFA from previously unopened, vacuum-sealed glass ampules ensuring CFA of identical specific activity.
(§1) Thermal Sensitivity Testing: Prior to testing, animals were allowed to habituate to the testing room for 1 hour on each day. Animals were placed on an enclosed elevated frosted glass platform (Ugo Baseline) and allowed 30 minutes for habituation. Once exploratory behavior ceased, an automatic Hargreaves apparatus was maneuvered (Ugo Basile) underneath the hind paw(s) of the animals. Paw withdrawal latency was calculated as the average of four trials per hind limb. Each trial was followed by a 5-minute latency period to allow adequate recovery time between trials.

The next data set concerns rats. Nature of the data set: Incisional post-operative pain model, thermal sensitivity. In kind it is in vivo, rat. As to conditions: for tau (τ), rate of recovery following incision: exponential decay fit, time in days. The protocol:
Incisional post-operative pain model: To model post-operative pain, an established rat incisional model was used. In short, male and female rats were randomized into either experimental or control groups. On the day of surgery, the animals were anesthetized and placed into a prone position. Once the animal was under a surgical plane of anesthesia, a 200 μL intraplantar injection of 100 μM (31.54 μg total) lipidated peptidomimetic was made into the ipsilateral hind paw. Afterwards, the animals were returned to their home cage and allowed to recover. On the same day, 6 hours after the pre-injection, the animals were anaesthetized, placed into a prone position, and prepared for incision injury. The ipsilateral hind paw was sterilized using successive swabs of chlorohexidine, 70% ethanol, and iodine. Then, using a size 10 scalpel, a 1 cm long incision was made into the plantar surface of the ipsilateral hind paw. Short, yet firm, strokes were used to make incisions through the skin, fascia, and muscle of the hind paw. Following incision, two 50 μL injections, containing 100 μM (7.885 μg per injection) of the lipidated peptidomimetic, were made into each “half” of the incised plantar muscle. Following injection into the muscle, the skin was sutured using 6/0 silk sutures (Ethicon) in a continuous manner to discourage removal of sutures. Upon conclusion of suturing, four 25 μL injections containing 100 μM (3.9425 μg per injection) of the lipidated peptidomimetic, were made into a “quadrant” adjacent to the incision. Finally, the animals were returned to their home cage and allowed to recover for at least 16 hours.
as §1

The mark [3] stands for this setting: single i.pl. peptide injection (100 μM, 20 μL) 24 h after CFA, n=8.
Setting [4] is: peptide 100 μM 6 h before and immediately after plantar incision.

Ends that are not written are not given here. Peptide text beside a SMILES is read from it. * marks the point of attachment. Myristoyl = CCCCCCCCCCCCCC(=O)*

Chain of AP2 complex (O94973 1-621 limits assumed): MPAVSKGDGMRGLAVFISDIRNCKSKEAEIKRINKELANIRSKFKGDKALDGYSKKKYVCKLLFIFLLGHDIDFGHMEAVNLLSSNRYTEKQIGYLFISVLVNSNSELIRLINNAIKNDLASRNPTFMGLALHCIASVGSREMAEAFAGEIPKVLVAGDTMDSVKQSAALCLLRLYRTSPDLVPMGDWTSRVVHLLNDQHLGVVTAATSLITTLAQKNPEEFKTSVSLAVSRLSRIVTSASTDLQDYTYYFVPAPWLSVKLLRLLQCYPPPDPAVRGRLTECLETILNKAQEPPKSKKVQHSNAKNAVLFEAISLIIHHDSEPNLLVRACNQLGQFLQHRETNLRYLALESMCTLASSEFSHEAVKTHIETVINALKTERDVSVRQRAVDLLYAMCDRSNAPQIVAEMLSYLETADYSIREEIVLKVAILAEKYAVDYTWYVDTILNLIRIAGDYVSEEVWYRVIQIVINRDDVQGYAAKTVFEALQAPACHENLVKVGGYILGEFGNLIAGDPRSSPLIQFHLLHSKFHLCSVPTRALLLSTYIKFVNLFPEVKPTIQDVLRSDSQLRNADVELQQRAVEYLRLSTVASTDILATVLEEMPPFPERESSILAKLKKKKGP
Chain of AP2 complex (P53680 whole entry): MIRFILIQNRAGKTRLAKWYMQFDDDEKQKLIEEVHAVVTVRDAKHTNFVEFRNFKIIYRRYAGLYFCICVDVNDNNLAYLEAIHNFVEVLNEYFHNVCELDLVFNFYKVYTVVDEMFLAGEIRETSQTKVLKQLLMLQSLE
Chain of AP2 complex (P63010 1-591 partner limits assumed): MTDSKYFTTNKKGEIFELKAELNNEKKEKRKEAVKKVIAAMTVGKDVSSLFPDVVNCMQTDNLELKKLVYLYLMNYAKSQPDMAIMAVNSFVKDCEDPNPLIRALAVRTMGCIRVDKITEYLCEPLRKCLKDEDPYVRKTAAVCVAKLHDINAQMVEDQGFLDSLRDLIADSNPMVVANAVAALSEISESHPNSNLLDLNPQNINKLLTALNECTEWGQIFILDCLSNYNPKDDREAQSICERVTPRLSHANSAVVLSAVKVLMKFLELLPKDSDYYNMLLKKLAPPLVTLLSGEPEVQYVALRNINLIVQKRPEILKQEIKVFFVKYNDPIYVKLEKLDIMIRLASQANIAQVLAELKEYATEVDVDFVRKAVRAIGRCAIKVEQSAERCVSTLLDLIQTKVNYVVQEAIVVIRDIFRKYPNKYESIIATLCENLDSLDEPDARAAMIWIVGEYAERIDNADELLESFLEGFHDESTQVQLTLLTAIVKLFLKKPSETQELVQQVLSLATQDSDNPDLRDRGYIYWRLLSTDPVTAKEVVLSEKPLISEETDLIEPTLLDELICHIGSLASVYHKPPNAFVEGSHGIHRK
Chain of AP2 complex (Q96CW1 whole entry partner): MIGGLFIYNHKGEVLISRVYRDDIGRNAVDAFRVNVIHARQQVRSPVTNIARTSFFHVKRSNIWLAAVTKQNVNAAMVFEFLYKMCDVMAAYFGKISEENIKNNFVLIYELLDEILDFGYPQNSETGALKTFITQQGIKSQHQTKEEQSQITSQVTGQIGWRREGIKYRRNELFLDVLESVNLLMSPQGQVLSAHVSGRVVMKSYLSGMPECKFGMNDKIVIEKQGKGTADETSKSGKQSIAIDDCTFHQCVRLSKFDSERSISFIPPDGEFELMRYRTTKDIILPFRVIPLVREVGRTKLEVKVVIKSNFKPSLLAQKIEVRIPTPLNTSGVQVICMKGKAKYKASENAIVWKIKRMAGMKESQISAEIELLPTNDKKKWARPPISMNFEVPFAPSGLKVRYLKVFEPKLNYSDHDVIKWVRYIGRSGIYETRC

With `CCCCCCCCCCCCCC(=O)N[C@@H](CCCNC(=N)N)C(=O)N[C@@H](CCSC)C(=O)N[C@@H](CO)C(=O)N[C@@H](CCC(=O)O)C(=O)N[C@H](C(=O)N[C@@H](CCCCN)C(=O)N[C@@H](CCCNC(=N)N)C(=O)N[C@@H](CC(C)C)C(=O)N[C@@H](CC(C)C)C(=O)N[C@@H](CO)C(=O)N[C@@H](CCC(=O)O)C(=O)O)[C@@H](C)CC` [AP2 inhibitor peptide, RMSEIKRLLSE (SEQ ID NO: 1)] (Myristoyl-RMSEIKRLLSE-OH; N-terminus and C-terminus assumed), the “granuloma-like clustering of immune cells” value in the data set with rat hind paws (24 hours following incision, n=2) is “dense clustering of immune cells”. Besides, in the data set with rat hind paws (after injection of the peptide), the changes in gait result was “did not potentiate any observable changes”. Moreover, the Kd at AP2 complex was 650 nM.

On to “IERLSEMSLRK (SEQ ID NO: 6) [scrambled peptide]”, for which the “cumulative phase 2 paw licking behavior” value in the data set with C57BL/6 mice [1] (single i.pl. peptide injection (100 μM, 20 μL) 24 h before 5% formalin, n=6) is on record as 184±22. The “paw withdrawal latency day-1” value in the data set with C57BL/6 mice [2] (24 h after CFA, before the single i.pl. peptide injection, n=8) was determined as 2.4 ± 0.3 s. Moreover, in the data set with C57BL/6 mice [2] (all animals, first order exponential decay fit), the “tau (τ), time constant of thermal sensitivity recovery” value (from here on “tau (τ), time constant”) amounted to 4.82. In addition, the “tau (τ), time constant” value with C57BL/6 mice [2] (female mice, exponential decay fit) is listed as 3.23. Besides, the “tau (τ), time constant” value with C57BL/6 mice [2] (male mice, exponential decay fit) is 6.45. In the data set on C57BL/6 mice [2] (setting [3]), the “paw withdrawal latency day-2” value is 3.8 ± 0.5 s, the “paw withdrawal latency day-3” value stood at 3.8 ± 0.4 s, the “paw withdrawal latency day-5” value turned out to be 5.5 ± 0.6 s and the “paw withdrawal latency day-9” value was determined as 7.0 ± 0.8 s. In addition, in the data set with rats (all rats), the “tau (τ), rate of recovery following incision” value (shortened to “tau (τ), rate”) is reported as 9.09. Moreover, the “tau (τ), rate” value in the data set with rats (female rats) was determined as 11.72. Further, in the data set on rats (male rats), the “tau (τ), rate” value is listed as 7.46. Besides, in the data set on rats (setting [4]), the “paw withdrawal latency day-1” value was 5.7 ± 0.4 s, the “paw withdrawal latency day-2” value turned out to be 6.4 ± 0.4 s, the “paw withdrawal latency day-3” value came to 7.4 ± 0.5 s and the “paw withdrawal latency day-4” value came out at 7.4 ± 0.5 s. In the data set with rats (setting [4]), the “paw withdrawal latency day-5” value stood at 8.3 ± 0.6 s, the “paw withdrawal latency day-6” value was 8.6 ± 0.5 s, the “paw withdrawal latency day-7” value stood at 11.7 ± 0.6 s and the “paw withdrawal latency day-8” value was 11.4 ± 0.4 s. Also, the “paw withdrawal latency day-9” value with rats (setting [4]) worked out at 12.0 ± 0.6 s.

“RASDKQTLLPNQ (SEQ ID NO: 5) (also: phosphorylated, site not given here) [P4, di-leucine based peptide, parent protein CD3, phosphorylated]”: the “nocifensive (licking and lifting) behaviors” value in the data set on C57BL/6 mice [1] (di-leucine peptide analogs, 5% formalin, n=3 per analog) was “significant decreases”.
